# Assay results from patent US10961309B2, “Reducing systemic regulatory T cell levels or activity for treatment of disease and injury of the CNS” (Yeda Research and Development Co. Ltd, priority 2014, dated 2021).
# Entries after “also recorded” stand apart in the source; their conditions may differ.
# Legend:
# Type in all cases: in vivo, mouse
# [1] = tested on: choroid plexus leukocyte trafficking molecules (icam1, cxcl10, ccl2) and ifn-γ; assay: Choroid plexus (CP) mRNA expression by RT-qPCR
# Method: Total RNA of the hippocampal dentate gyrus (DG) was extracted with TRI Reagent (Molecular Research Center) and purified from the lysates using an RNeasy Kit (Qiagen). Total RNA of the choroid plexus was extracted using an RNA MicroPrep Kit (Zymo Research). mRNA (1 μg) was converted into cDNA using a High Capacity cDNA Reverse Transcription Kit (Applied Biosystems). The expression of specific mRNAs was assayed using fluorescence-based quantitative real-time PCR (RT-qPCR). RT-qPCR reactions were performed using Fast-SYBR PCR Master Mix (Applied Biosystems). Quantification reactions were performed in triplicate for each sample using the standard curve method. Peptidylprolyl isomerase A (ppia) was chosen as a reference (housekeeping) gene. The amplification cycles were 95° C. for 5 s, 60° C. for 20 s, and 72° C. for 15 s. […] For ifn-γ and ppia gene analysis, the cDNA was pre-amplified in 14 PCR cycles with non-random PCR primers, thereby increasing the sensitivity of the subsequent real-time PCR analysis, according to the manufacturer's protocol (PreAmp Master Mix Kit; Applied Biosystems). mRNA expression was determined using TaqMan RT-qPCR, according to the manufacturer's instructions (Applied Biosystems). All RT-qPCR reactions were performed and analyzed using StepOne software V2.2.2 (Applied Biosystems). […]
# [2] = tested on: splenocytes (CD4+Foxp3+ Tregs, CD4+ IFN-γ+ T cells); assay: Flow cytometry of splenocytes
# Method: Mice were transcardially perfused with PBS, and tissues were treated as previously described (Baruch et al, 2013). Brains were dissected and the different brain regions were removed under a dissecting microscope (Stemi DV4; Zeiss) in PBS, and tissues were dissociated using the gentleMACS™ dissociator (Miltenyi Biotec). Choroid plexus tissues were isolated from the lateral, third and fourth ventricles of the brain, incubated at 37° C. for 45 min in PBS (with Ca^2+/Mg^2+) containing 400 U/ml collagenase type IV (Worthington Biochemical Corporation), and then manually homogenized by pipetting. Spleens were mashed with the plunger of a syringe and treated with ACK (ammonium chloride potassium) lysing buffer to remove erythrocytes. In all cases, samples were stained according to the manufacturers' protocols. All samples were filtered through a 70 μm nylon mesh, and blocked with anti-Fc CD16/32 (1:100; BD Biosciences). For intracellular staining of IFN-γ, the cells were incubated with […] (10 ng/ml; Sigma-Aldrich) and ionomycin (250 ng/ml; Sigma-Aldrich) for 6 h, and Brefeldin-A (10 μg/ml; Sigma-Aldrich) was added for the last 4 h. Intracellular labeling of cytokines was done with BD Cytofix/Cytoperm™ Plus fixation/permeabilization kit (cat. no. 555028). For Treg staining, an eBioscience FoxP3 staining buffer set (cat. no. 00-5523-00) was used. The following fluorochrome-labeled monoclonal antibodies were purchased from BD Pharmingen, BioLegend, R&D Systems, or eBiosciences, and used according to the manufacturers' protocols: PE or Alexa Fluor 450-conjugated anti-CD4; PE-conjugated anti-CD25; PerCP-Cy5.5-conjugated anti-CD45; FITC-conjugated anti-TCRβ; APC-conjugated anti-IFN-γ; APC-conjugated anti-FoxP3; Brilliant-violet-conjugated anti-CD45. Cells were analyzed on an LSRII cytometer (BD Biosciences) using FlowJo software. In each experiment, relevant negative control groups, positive controls, and single stained samples for each tissue were used to identify the populations of interest and to exclude other populations.
# 5XFAD AD-Tg mice = assay: Morris water maze (MWM)
# Method: Mice were given three trials per day, for 4 consecutive days, to learn to find a hidden platform located 1.5 cm below the water surface in a pool (1.1 m in diameter). The water temperature was kept between 21-22° C. Water was made opaque with milk powder. Within the testing room, only distal visual shape and object cues were available to the mice to aid in location of the submerged platform. The escape latency, i.e., the time required to find and climb onto the platform, was recorded for up to 60 s. Each mouse was allowed to remain on the platform for 15 s and was then removed from the maze to its home cage. […] The inter-trial interval for each mouse was 10 min. On day 5, the platform was removed, and mice were given a single trial lasting 60 s without available escape. On days 6 and 7, the platform was placed in the quadrant opposite the original training quadrant, and the mouse was retrained for three sessions each day. Data were recorded using the EthoVision V7.1 automated tracking system (Noldus Information Technology). Statistical analysis was performed using analysis of variance (ANOVA) and the Bonferroni post-hoc test. All MWM testing was performed between 10 a.m. and 5 p.m. during the lights-off phase.
compound,measurement,setting,value
Glatiramer acetate [GA],"CP epithelial expression of leukocyte trafficking molecules (icam1, cxcl10, ccl2)","[1]; weekly-GA, AD-Tg mice, end of 1st or 4th week",upregulated epithelial expression of leukocyte trafficking molecules
same,splenocyte Foxp3+ Treg levels,"[2]; weekly-GA, 5XFAD AD-Tg mice, end of 1st week of regimen",reduced
same,"spatial learning/memory performance in acquisition, probe and reversal phases of the MWM","5XFAD AD-Tg mice; weekly-GA vs vehicle (PBS), AD-Tg mice, age 6 m",better spatial learning/memory performance
same,cognitive performance,"5XFAD AD-Tg mice; weekly-GA, 5XFAD AD-Tg mice, MWM 1 week, RAWM 1 and 2 months after last injection",improved cognitive performance
Diphtheria toxin [DTx],"CP mRNA expression of leukocyte trafficking molecules (icam1, cxcl10, ccl2)","[1]; AD-Tg/DTR+ vs DTx-treated AD-Tg/DTR− littermates, 1 day after last DTx injection",elevated mRNA expression
same,spatial learning and memory (MWM),"5XFAD AD-Tg mice; AD-Tg/DTR+ vs DTx-treated AD-Tg/DTR− mice, 3 weeks after last DTx injection",better spatial learning/memory performance; also recorded: significant improvement in spatial learning and memory
"CC1=C(/C=C/C(C)=C/C=C/C(C)=C/C(=O)O)C(C)(C)CCC1 [ATRA, All-trans retinoic acid]",splenocyte frequencies of Foxp3+CD25+ Tregs,"[2]; ATRA 8 mg/kg/d i.p. every other day 1 week vs vehicle (DMSO), 5-month 5XFAD AD-Tg mice",significantly higher; also recorded: elevation
